These results are taken from patent EP0359256A2, “The use of inositoltrisphosphate in the treatment of tissue damage” (PERSTORP AB, priority 1988, dated 1990).

Holding throughout (format): in vivo
In series [1] the test system is rat hind-paw. The series is described as follows: Carrageenan-induced oedema of the rat hind-paw. As to conditions: male rats, 1000 mg/kg injected 2 hours and 1 hour before carrageenan; four hours after induction of the damage. As for the experimental part:
Injection of carrageenan into the subplanar surface of the rat hind-paw induces a tissue damage that results in pronounced oedema. The degree of oedema can be reproducibly quantified by measuring paw circumference.
Two groups of five male rats were injected 2 hours and 1 hour before injection of carrageenan with 1000 mg/kg D-myo-inositol-1.2.6-trisphosphate (IP₃) or Krebs ringer solution (control) respectively.
Measurement of the paw diameter was made at hourly intervals.

Series [2] concerns shaved dorsal skin of rabbits. The series is described as follows: Local oedema formation in rabbit dorsal skin in response to mediators of increased microvascular permeability, Evans Blue. As to conditions: 50 mg/kg directly after injection of the mediators. As for the experimental part: Local oedema formation is measured in the shaved dorsal skin of rabbits in response to mediators of increased microvascular permeability, such as histamine, bradykinin and platelet activating factor (PAF). When a vasodilator such as calcitonin gene-related peptide (CGRP) is administered together with the mediators the blood flow is increased and this system is established for testing compounds that reduces oedema formation.
Prior to injection of the different mediators Evans Blue is injected into the anaesthetized animals. The distribution of Evans Blue is a measurement of the tissue damage and oedema formation. Directly after injection of the mediators either saline (control) or 50 mg/kg of D-myo-inositol-1.2.6-trisphos phate (IP₃) are performed.
The results are shown below as per cent inhibition of IP₃ compared to control.

The test system of series [3] is skin of the abdomen. The series is described as follows: Controlled burn damage in rats, albumin leakage measured with Evans Blue. To be noted: n=10, 10 mg/kg injection 15 minutes after the burn, then infusion of 0.2 mg/min for 2 hours. As for the experimental part: A controlled burn damage is induced in rats as a heat probe is applied to the skin of the abdomen with a constant pressure. The probe has a surface temperature of […] and is allowed to deliver a specific amount of energy until the temperature is lowered to 37°C. 15 minutes after the induction of the burn an injection of saline (control) or D-myo-inositol-1.2.6-trisphosphate (IP₃) was performed. After this first injection (10 mg/kg IP₃) an infusion of 0.2 mg/min IP₃ followed for 2 hours. 90 minutes after the damage Evans Blue is injected to the animals. This compound binds to albumin, which leaks into the damaged tissue. The amount of albumin leakage is then easily determined by measuring the intensity of colour of Evans Blue in different parts of the tissue. After another 30 minutes the animals are killed and the tissue damage is determined. […] Thus IP₃ is an protective substance against tissue damage caused by burns.

In series [4] the test system is mice. Kind of series: Toxicity after intraperitoneal injection of very high doses. As to conditions: 160 mg/kg body weight by intraperitoneal injection.
In series [5] the test system is hamster cheek pouch. Kind of series: Vascular permeability and bleeding induced by histamine in the hamster cheek pouch. To be noted: 80 min period. The procedure:
Vascular permeability and bleeding induced by histamine in the hamster cheek pouch was determined in the presence of D-myo-inositol-1.2.6-trisphosphate (IP₃) compared to control. Male hamsters were fasted overnight and anaesthetised with sodium pentobarbitone. Infusion was performed through the jugular vein. Injection of histamine (2.7 mg/kg) was preceded by either saline (control) or IP₃ (5.0 mg/kg).

By % inhibition is commonly meant the share of the control response that was lost under treatment. As for `O=P(O)(O)OC1[C@H](OP(=O)(O)O)[C@H](O)C(O)[C@H](O)[C@H]1OP(=O)(O)O` (stereo partly drawn) [IP₃, D-myo-inositol-1.2.6-trisphosphate], the “reduces the oedema as compared to control” value in series [1] was 40%. For the same molecule, the “% inhibition with IP₃ compared to control” value in series [2] (mediator Bradykinin) is 64%; in series [2] (mediator Histamine), 61%; in series [2] (mediator PAF) it was 64%. Further, the “burn damage compared to control” value in series [3] is given as “significantly reduced”. Moreover, in series [4], the toxic effects entry is “no toxic effects”. The “% inhibition” value in series [5] (inhibition of petechiae versus saline control, histamine 2.7 mg/kg, IP₃ 5.0 mg/kg) came out at 88%. In addition, the number of petechiae in series [5] (male hamsters, histamine 2.7 mg/kg preceded by IP₃ 5.0 mg/kg, infusion through jugular vein) stood at 1.0.
